Laboratory results reported in PubChem BioAssay AID1259334 (Broad Institute, 2017).
Values joined by “and” are separate entries in the source; they are usually repeats but may differ in a detail not shown here. Equal values may be shown once. Active and inactive are the calls of the source. Rule as the data show it: active = AC50 below about 11 µM. Numbered stars: 1 amine (or outer) side, 2 acyl side, 3 side chain; on linkers, the order of the positions; unused ones are H or OH. Bridge positions count the residues as written; N and C are the ends. Square brackets hold non-standard residues; d marks the D form. Peptide text beside a SMILES is read from it. I, II: the chains in the order shown. * marks the point of attachment. Actinocin(9to1) = Cc1c2oc3c(C)ccc(C(=O)[*:1])c3nc-2c(C(=O)[*:2])c(N)c1=O; NMeV = CN[CH](C(=O)O)C(C)C; Cbz = O=C(OCc1ccccc1)*; Sar = CNCC(=O)O

tested on: B cell line, TNFa signaling counterscreen reporter; assay: TNFa pathway inhibition counter-screen, B-lineage cells – dose response (AID 1259334);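 also: cells stimulated with TNFa after compound preincubation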

| Compound | AC50 |
| --- | --- |
| CCOc1ccc(OCc2cccc(C(=O)N3CCOCC3)c2)cc1 | 2.84 µM |
| C[C@@H]1CN([C@H](C)CO)C(=O)c2c(c3ccccc3n2C)-c2ccccc2CO[C@@H]1CN(C)C(=O)c1cc(Cl)cc(Cl)c1 | 8.14 µM |
| NCCOc1ccc(C23CC4CC(CC(C4)C2)C3)cc1 | 4.61 µM |
| COc1ccc(S(=O)(=O)N(C)C[C@H]2Oc3ccc(NC(=O)Nc4ccc(C(F)(F)F)cc4)cc3C(=O)N([C@H](C)CO)C[C@H]2C)cc1 | 8.38 µM |
| CC(NCC(O)COCCC12CC3CC(CC(C3)C1)C2)c1ccccc1 (centres undefined) | 4.1 µM |
| CCN(CC)C(=O)c1ccc(NC(=O)Nc2ccccc2F)cc1 | 1.86 µM |
| NC(=NCCCCCCN=C(N)/N=C(\N)Nc1ccc(Cl)cc1)/N=C(\N)Nc1ccc(Cl)cc1 | 10.5 µM |
| N#Cc1c(Br)n(C2OC(CO)C(O)C2O)c2ncnc(N)c12 (centres undefined) | 1.16 µM |
| N#Cc1cccc(-c2ccc([C@@H]3[C@@H]4CN(S(=O)(=O)c5ccc(-c6ccccc6)cc5)C[C@H]3N4)cc2)c1 | 11.4 µM |
| CC(C)(C)OC(=O)CC(S(=O)(=O)c1ccccc1)S(=O)(=O)c1ccccc1 | 1.07 µM |
| COc1ccc(S(=O)(=O)N(C)C[C@H]2Oc3ccc(NC(=O)Nc4ccc(C(F)(F)F)cc4)cc3C(=O)N([C@@H](C)CO)C[C@@H]2C)cc1 | > 20 µM (inactive) |
| C1CCC(C(CC2CCCCN2)C2CCCCC2)CC1 (centres undefined) | 2.75 µM |
| Oc1ccc2c(c1)OCC1(O)Cc3cc(O)c(O)cc3C21 (centres undefined) | 2.18 µM |
| O=C(Nc1ccc(C(F)(F)F)cc1)Nc1ccc2c(c1)[C@H]1C[C@@H](CC(=O)N3CCc4ccccc4C3)O[C@@H](CO)[C@H]1O2 | > 7 µM (inactive) |
| Cc1ccc2nc(C(F)(F)F)c(C#N)c(N)c2c1 | 7.61 µM |
| C[C@H](CO)N1C[C@H](C)[C@@H](CN(C)Cc2ccc(Cl)c(Cl)c2)OCCCC[C@H](C)Oc2ccc(NS(=O)(=O)c3cccs3)cc2C1=O | 8.48 µM |
| COCC(C)n1c(C)cc(C(=O)COC(=O)c2cccn2C)c1C (centres undefined) | 0.76 µM |
| N#Cc1cccc(-c2ccc(C3[C@H]4CNC[C@@H]3N4Cc3ccc4c(c3)OCO4)cc2)c1 (some centres undefined) | 6.32 µM |
| C[C@@H]1CN([C@@H](C)CO)C(=O)c2c(c3ccccc3n2C)-c2ccccc2CO[C@@H]1CN(C)C(=O)Nc1ccccc1C(F)(F)F | 7.57 µM |
| N#C[C@@H]1[C@H](c2ccc(C#CC3CCCCC3)cc2)[C@@H](CO)N1C(=O)Nc1ccc(F)cc1 | > 20 µM (inactive) |
| CC1=C(O)C(=O)C=C2C1=CC=C1C2(C)CCC2(C)C3CC(C)(C(=O)O)CCC3(C)CCC12C (centres undefined) | 0.414 µM |
| O=C(C1CCCC1)N1CC(=O)N2[C@@H](CO)[C@@H](c3ccc(C#CCc4ccccc4)cc3)[C@@H]2C1 | 1.7 µM |
| C[C@H](CO)N1C[C@H](C)[C@H](CN(C)S(=O)(=O)c2ccc(Cl)cc2)Oc2c(NC(=O)Nc3ccc(F)cc3)cccc2C1=O | 4.98 µM |

| Compound | AC50 |
| --- | --- |
| O=[N+]([O-])c1ccc(N2CCOCC2)c2c1no[n+]2[O-] | 6.5 µM |
| c1ccc2c(c1)OCC(C1=NCCN1)O2 (centres undefined) | > 20 µM (inactive) |
| C[C@@H]1CN([C@@H](C)CO)C(=O)c2c(c3ccccc3n2C)-c2ccccc2CO[C@@H]1CN(C)C(=O)c1cc(Cl)cc(Cl)c1 | > 20 µM (inactive) |
| CCC(=O)O[C@]1(C(=O)CCl)[C@@H](C)C[C@H]2[C@@H]3CCC4=CC(=O)C=C[C@]4(C)[C@@]3(F)[C@@H](O)C[C@@]21C | > 20 µM (inactive) |
| CC(=O)OC1CCC2(C)C(CCC3C4CC=C(C(C)=O)C4(C)OC(=O)CC32)C1 (centres undefined) | 1.65 µM |
| NC(c1ccccc1)c1csc(NC(=O)Nc2cccc(C(F)(F)F)c2)n1 (centres undefined) | 3.07 µM |
| CC(C)c1ccc(NC(=O)Nc2nc(C(N)COCc3ccccc3)cs2)cc1 (centres undefined) | 1.78 µM |
| Cc1noc(C)c1S(=O)(=O)Nc1ccc2c(c1)CC(=O)N([C@@H](C)CO)C[C@@H](C)[C@@H](CN(C)Cc1ccc(Oc3ccccc3)cc1)O2 | 7.01 µM |
| O=C1c2c(O)ccc(O)c2C(=O)c2c(NCCNCCO)ccc(NCCNCCO)c21 | 1.18 µM |
| CNc1c2cccc(C)c2nc2c(C(=O)NCCN(C)C)cccc12 | 0.583 µM |
| O=C(C1CC1)N1C[C@@H]2N[C@H](C1)[C@@H]2c1ccc(-c2ccncc2)cc1 | 5 µM |
| CN(C)C(=S)SSC(=S)N(C)C | 0.0358 µM |
| Cc1ccc(S(=O)(=O)C=CS(=O)(=O)c2ccc(C)cc2)cc1 | 1.22 µM |
| CCOC(=O)c1c(SCCN2CCCC2)n(-c2ccccc2)c(=S)n(-c2ccccc2)c1=O | 4.78 µM |
| O=S(c1ccccc1O)S(=O)c1ccccc1O (centres undefined) | > 20 µM (inactive) |
| Cc1c2oc3c(C)ccc(C(=O)OC(C)C4NC(=O)C(C(C)C)N(C)C(=O)CN(C)C(=O)C5CCCN5C(=O)C(C(C)C)NC4=O)c3nc-2c(C(=O)OC(C)C2NC(=O)C(C(C)C)N(C)C(=O)CN(C)C(=O)C3CCCN3C(=O)C(C(C)C)NC2=O)c(N)c1=O (centres undefined) (I: cyclo([Sar][NMeV]TVP) / II: cyclo([Sar][NMeV]TVP); linker I:3-II:3 via Actinocin(9to1); configuration not given here) | 0.00519 µM |
| CCCCNC(=O)C1(C)CCN1C(=O)c1cc(-c2cccs2)oc1C (centres undefined) | 2.59 µM |
| O=C(Nc1ccc(C(F)(F)F)cc1)Nc1ccc2c(c1)[C@H]1C[C@@H](CC(=O)N3CCc4ccccc4C3)O[C@H](CO)[C@H]1O2 | 10.7 µM |
| Cc1cc(C(=O)COC(=O)CNC(=O)c2ccccc2)c(C)n1CC1CCCO1 (centres undefined) | 5.61 µM |
| N#C[C@H]1[C@H](c2ccc(-c3cccc(F)c3)cc2)[C@H](CO)N1C(=O)NC1CCCC1 | > 20 µM (inactive) |
| COc1ccc(/C=C2/CCC(CN3CCOCC3)C2=O)cc1 (centres undefined) | 2.69 µM |
| C[C@@H]1CCCCO[C@@H](CN(C)Cc2ccc(Cl)c(Cl)c2)[C@H](C)CN([C@H](C)CO)C(=O)c2cc(NS(=O)(=O)c3cccs3)ccc2O1 | 6.39 µM |
| Cc1ccc(N2CC(C(=O)Nc3nccs3)CC2=O)cc1Cl (centres undefined) | 8.13 µM |

| Compound | AC50 |
| --- | --- |
| N#C[C@H]1N[C@H](CO)[C@H]1c1ccc(C#CC2CCCC2)cc1 | 8.01 µM |
| Cc1ccc2c(=O)c3ccccc3n(CCCN)c2c1C | 3.28 µM |
| N#C[C@@H]1[C@H](c2ccc(C#CC3CCCCC3)cc2)[C@@H](CO)N1S(=O)(=O)c1ccccc1 | 7.1 µM |
| C[C@H](CO)N1C[C@H](C)[C@H](CN(C)CC2CCCCC2)OCCCC[C@H](C)Oc2ccc(NC(=O)Nc3ccc(C(F)(F)F)cc3)cc2C1=O | 7.26 µM |
| COC(=O)c1ccc2nc(NC(=O)C(C)(C)C)sc2c1 | 2.32 µM |
| Cc1c(CCOC(=O)CC23CC4CC(CC(C)(C4)C2)C3)sc[n+]1CC(=O)c1ccccc1 | 1.81 µM |
| COc1cccc(C#Cc2ccc([C@H]3[C@@H](C#N)N(C(=O)c4ccccn4)[C@@H]3CO)cc2)c1 | 10.3 µM |
| CC1CNCCN1S(=O)(=O)c1cccc2cnccc12 (centres undefined) | 7.79 µM |
| O=C1C=CC2C3C(=O)N(c4ccccc4)C(=O)C3C1N2Cc1ccccc1 (centres undefined) | 1.52 µM |
| C[C@@H]1CN([C@@H](C)CO)C(=O)c2c(c3ccccc3n2C)-c2ccccc2CO[C@H]1CN(C)Cc1ccccc1 | 5.53 µM |
| O=C(COC(=O)c1ccccc1)c1ccc2c(c1)OCCO2 | 0.986 µM |
| CC1CC(C)(O)CC(C(O)CC2CC(=O)NC(=O)C2)C1=O (centres undefined) | 0.0899 µM |
| O=C1NC2c3c(Cl)sc(Cl)c3C(=O)C2O1 (centres undefined) | 4.18 µM |
| C[C@@H]1CN([C@@H](C)CO)C(=O)c2c(c3ccccc3n2C)-c2ccccc2CO[C@H]1CN(C)S(=O)(=O)c1ccc([N+](=O)[O-])cc1 | > 20 µM (inactive) |
| O=C(Nc1ccccn1)c1ccc(-c2ccccc2)cc1 | 2.91 µM |
| O=C(/C=C/c1cccs1)c1ccc(N2CCOCC2)cc1 | 3.87 µM |
| COc1c(-c2coc3cc4c(cc3c2=O)CC(O)C(C)(C)O4)ccc2c1C=CC(C)(C)O2 (centres undefined) | 11 µM |
| Cc1cccc(-c2ccc(C3[C@@H]4CN(C(=O)Nc5ccc(C(F)(F)F)cc5)C[C@H]3N4)cc2)c1 (some centres undefined) | > 20 µM (inactive) |
| C[C@H](CO)N1C[C@H](C)[C@@H](CN(C)Cc2cccc(C(F)(F)F)c2)OCc2ccccc2-c2c(n(C)c3ccccc23)C1=O | 8.03 µM |
| O=C1CC(=O)OC(c2ccc([N+](=O)[O-])cc2)O1 | 1.09 µM |
| O=C(c1ccc(Nc2nccc(-c3cc4ccccc4s3)n2)cc1)N1CCC(N2CCCC2)CC1 | 0.15 µM and 0.715 µM |
| CC(=O)OCC12CC(OC(=O)CC(C)C)C(C)=CC1OC1C(O)C(OC(C)=O)C2(C)C12CO2 (centres undefined) | 0.00346 µM |
| O=C(CNC(=O)c1ccco1)Nc1ccc2c(c1)OCCO2 | > 20 µM (inactive) |

| Compound | AC50 |
| --- | --- |
| CC1=C(SCCO)C(=O)c2ccccc2C1=O | 2.22 µM |
| C[n+]1c2n(c3ccccc31)N=C(c1ccc(-c3ccccc3)cc1)CS2 | 1.25 µM |
| COc1ccc(C(=O)O/N=C2\C(=O)N(C)c3ccccc32)cc1 | 7.39 µM |
| COc1cccc(S(=O)(=O)N(C)C[C@@H]2OCc3ccccc3-c3c(n(C)c4ccccc34)C(=O)N([C@@H](C)CO)C[C@@H]2C)c1 | > 20 µM (inactive) |
| N#C[C@H]1[C@H](c2ccc(C#Cc3ccccc3F)cc2)[C@@H](CO)N1C(=O)C1CCC1 | > 20 µM (inactive) |
| O=S(=O)(CCSc1ccccn1)c1nc2ccccc2s1 | 5.13 µM |
| CC(C)Cc1ccc(C(C)/C=C2/CCC(CN3CCCCC3)C2=O)cc1 (centres undefined) | 8.62 µM |
| Cc1ccc(S(=O)(=O)NC(C(=O)Oc2cc3oc(=O)cc(C)c3cc2Cl)C(C)C)cc1 (centres undefined) | 9.41 µM |
| CC(C)(C)CC(C)(C)c1ccc(O)c(Cc2ccc(Cl)cc2Cl)c1 | 5.5 µM |
| O=C(/C=C/c1ccccc1)CC(O)(c1ccccc1)C(F)(F)C(F)F (centres undefined) | 5.06 µM |
| COc1ccc(/C=C/C(=O)Nc2ccccc2C(=O)O)cc1OC | 8.81 µM |
| O=C(Nc1ccc(C(F)(F)F)cc1)N1C[C@@H]2N[C@H](C1)C2c1ccc(-c2ccccc2)cc1 (some centres undefined) | 3.28 µM |
| CC(=O)O[C@@H]1C[C@@]2(C)[C@H](c3ccoc3)C[C@H]3O[C@]32[C@]2(C)C(=O)C(=O)C3C(C)(C)C(=O)C=C[C@]3(C)C12 (some centres undefined) | 1.22 µM |
| C[C@@H]1CN([C@@H](C)CO)C(=O)c2c(c3ccccc3n2C)-c2ccccc2CO[C@@H]1CN(C)Cc1ccccc1C(F)(F)F | > 20 µM (inactive) |
| CC(C)C[C@@H](C=O)NC(=O)[C@H](CC(C)C)NC(=O)[C@H](CC(C)C)NC(=O)OCc1ccccc1 (Cbz-Leu-Leu-Leu-aldehyde) | 3.82 µM |
| COc1ccc(CN2CC3(CN(C(=O)Cc4ccccc4)C3)c3c([nH]c4cc(OC)ccc34)[C@@H]2CO)cc1 | > 20 µM (inactive) |
| COc1ccc(C=Cc2ccc3ccccc3n2)c(OC)c1 | 3.48 µM |
| N#C[C@@H]1[C@H](c2ccc(C#Cc3ccc(F)cc3)cc2)[C@@H](CO)N1C(=O)C1CCC1 | 10.7 µM |
| O=C(CCN1CCC(c2ccccc2)C1)c1ccc2c(c1)OCCO2 (centres undefined) | 6.18 µM |
| COc1ccccc1NC(c1cccnc1)c1ccc2cccnc2c1O (centres undefined) | 8.22 µM |
